Values after ≈ are worked out from the molar mass of the structure shown. Peptide text beside a SMILES is read from it.
How the values were obtained:
Staphylococcus aureus [1] = assay: Antimicrobial activity against Staphylococcus aureus ATCC 25923 assessed as reduction in bacterial growth by broth dilution method; assay type: functional
Staphylococcus aureus [2] = assay: Antimicrobial activity against multi-drug resistant Staphylococcus aureus assessed as reduction in bacterial growth by broth dilution method; assay type: functional
[3] = tested on: Staphylococcus epidermidis; assay: Antimicrobial activity against multi-drug resistant Staphylococcus epidermidis assessed as reduction in bacterial growth by broth dilution method; assay type: functional
Enterococcus faecalis = assay: Antimicrobial activity against multi-drug resistant Enterococcus faecalis assessed as reduction in bacterial growth by broth dilution method; assay type: functional
Escherichia coli [4] = assay: Antimicrobial activity against Escherichia coli ATCC 25922 assessed as reduction in bacterial growth by broth dilution method; assay type: functional
Escherichia coli [5] = assay: Antimicrobial activity against multi-drug resistant Escherichia coli assessed as reduction in bacterial growth by broth dilution method; assay type: functional
Klebsiella pneumoniae = assay: Antimicrobial activity against multi-drug resistant Klebsiella pneumoniae assessed as reduction in bacterial growth by broth dilution method; assay type: functional
Acinetobacter baumannii = assay: Antimicrobial activity against multi-drug resistant Acinetobacter baumannii assessed as reduction in bacterial growth by broth dilution method; assay type: functional
[6] = Hemolytic activity in human Red blood cell assessed as hemolysis incubated for 1 hrs by microplate reader based analysis; assay type: toxicity; details: erythrocyte

| SMILES | MIC (Staphylococcus aureus [1]) | MIC (Staphylococcus aureus [2]) | MIC [3] | MIC (Enterococcus faecalis) | MIC (Escherichia coli [4]) | MIC (Escherichia coli [5]) | MIC (Klebsiella pneumoniae) | MIC (Acinetobacter baumannii) | HC10 [6] |
| --- | --- | --- | --- | --- | --- | --- | --- | --- | --- |
| NCCCC[C@H](NC(=O)[C@H](Cc1ccccc1)NC(=O)[C@H](CCCCN)NC(=O)[C@H](Cc1ccccc1)NC(=O)[C@H](CCCCN)NC(=O)[C@H](Cc1ccccc1)NC(=O)[C@@H]1CCCN1C(=O)[C@H](Cc1c[nH]c2ccccc12)NC(=O)[C@H](Cc1c[nH]c2ccccc12)NC(=O)[C@H](Cc1c[nH]c2ccccc12)NC(=O)[C@@H]1CCCN1C(=O)[C@H](Cc1ccccc1)NC(=O)[C@H](CCCCN)NC(=O)[C@H](Cc1ccccc1)NC(=O)[C@H](CCCCN)NC(=O)[C@H](Cc1ccccc1)NC(=O)[C@@H](N)CCCCN)C(N)=O (H-KFKFKFPWWWPFKFKFK-NH2) | 8 µM (≈ 19.4 µg/mL) | 8 µM (≈ 19.4 µg/mL) | 4 µM (≈ 9.69 µg/mL) | 4 µM (≈ 9.69 µg/mL) | 8 µM (≈ 19.4 µg/mL) | 8 µM (≈ 19.4 µg/mL) | 16 µM (≈ 38.8 µg/mL) | 4 µM (≈ 9.69 µg/mL) | 6.39 µM |
| CC[C@H](C)[C@H](NC(=O)[C@H](CCCCN)NC(=O)[C@@H](NC(=O)[C@H](Cc1ccccc1)NC(=O)[C@@H]1CCCN1C(=O)[C@H](Cc1c[nH]c2ccccc12)NC(=O)[C@H](Cc1c[nH]c2ccccc12)NC(=O)[C@H](Cc1c[nH]c2ccccc12)NC(=O)[C@@H]1CCCN1C(=O)[C@H](Cc1ccccc1)NC(=O)[C@@H](NC(=O)[C@H](CCCCN)NC(=O)[C@@H](NC(=O)[C@@H](N)CCCCN)[C@@H](C)CC)[C@@H](C)CC)[C@@H](C)CC)C(=O)N[C@@H](CCCCN)C(N)=O (H-KIKIFPWWWPFIKIK-NH2) | 8 µM (≈ 16.2 µg/mL) | 8 µM (≈ 16.2 µg/mL) | 8 µM (≈ 16.2 µg/mL) | 16 µM (≈ 32.5 µg/mL) | 8 µM (≈ 16.2 µg/mL) | 16 µM (≈ 32.5 µg/mL) | 256 µM (≈ 520 µg/mL) | 8 µM (≈ 16.2 µg/mL) | 4.32 µM |
| CC[C@H](C)[C@H](NC(=O)[C@H](CCCCN)NC(=O)[C@@H](NC(=O)[C@H](CCCCN)NC(=O)[C@H](Cc1ccccc1)NC(=O)[C@@H]1CCCN1C(=O)[C@H](Cc1c[nH]c2ccccc12)NC(=O)[C@H](Cc1c[nH]c2ccccc12)NC(=O)[C@H](Cc1c[nH]c2ccccc12)NC(=O)[C@@H]1CCCN1C(=O)[C@H](Cc1ccccc1)NC(=O)[C@H](CCCCN)NC(=O)[C@@H](NC(=O)[C@H](CCCCN)NC(=O)[C@@H](NC(=O)[C@@H](N)CCCCN)[C@@H](C)CC)[C@@H](C)CC)[C@@H](C)CC)C(=O)N[C@@H](CCCCN)C(N)=O (H-KIKIKFPWWWPFKIKIK-NH2) | 4 µM (≈ 9.14 µg/mL) | 4 µM (≈ 9.14 µg/mL) | 8 µM (≈ 18.3 µg/mL) | 4 µM (≈ 9.14 µg/mL) | 16 µM (≈ 36.6 µg/mL) | 8 µM (≈ 18.3 µg/mL) | 32 µM (≈ 73.2 µg/mL) | 8 µM (≈ 18.3 µg/mL) | 29.44 µM |
| CC[C@H](C)[C@H](NC(=O)[C@H](CCCCN)NC(=O)[C@@H](NC(=O)[C@H](CCCCN)NC(=O)[C@@H](NC(=O)[C@H](Cc1ccccc1)NC(=O)[C@@H]1CCCN1C(=O)[C@H](Cc1c[nH]c2ccccc12)NC(=O)[C@H](Cc1c[nH]c2ccccc12)NC(=O)[C@H](Cc1c[nH]c2ccccc12)NC(=O)[C@@H]1CCCN1C(=O)[C@H](Cc1ccccc1)NC(=O)[C@@H](NC(=O)[C@H](CCCCN)NC(=O)[C@@H](NC(=O)[C@H](CCCCN)NC(=O)[C@@H](NC(=O)[C@@H](N)CCCCN)[C@@H](C)CC)[C@@H](C)CC)[C@@H](C)CC)[C@@H](C)CC)[C@@H](C)CC)C(=O)N[C@@H](CCCCN)C(N)=O (H-KIKIKIFPWWWPFIKIKIK-NH2) | 128 µM (≈ 322 µg/mL) | 128 µM (≈ 322 µg/mL) | 128 µM (≈ 322 µg/mL) | 64 µM (≈ 161 µg/mL) | 128 µM (≈ 322 µg/mL) | 128 µM (≈ 322 µg/mL) | 64 µM (≈ 161 µg/mL) | 128 µM (≈ 322 µg/mL) | 7.28 µM |

Reference: ChEMBL document CHEMBL6134890, “Terminally Symmetric β-Turn Peptides for Multidrug-Resistant Bacterial Infections” (J Med Chem, 2025)
